Results: patent US20240300958A1, “COMPOUNDS AND THE USES AND PHARMACEUTICAL COMPOSITIONS THEREOF” (BEIJING YOUZHUJU NETWORK TECHNOLOGY CO. LTD., priority 2023, published 2024)
Where two headings read alike, the source gives them in different places.

Tests used:
Test in all cases: Kinase inhibition profile (HTRF / ADP Glo kinase assay)
Format in all cases: biochemical
[1] = biological target: AurB (Homo sapiens (Human), UniProt Q96GD4)
Protocol: (§1) HTRF kinase assay: 2×ATP and substrate solution as well as 2× kinase and metal solution were prepared with assay buffer. 25 nL of compound was transferred to 384-well assay plate by Echo 655. After centrifugation, 2.5 μL of 2× kinase/metal ion solution was added to the 384-well assay plate followed by incubation at 25° C. for 10 min. 2.5 μL of 2× substrate and ATP solution was added to the wells followed by incubation at 25° C. for 60 min. 2× XL665 and antibody solution was prepared with assay buffer. 5 μL of kinase detection reagent was added to the wells followed by incubation at 25° C. for 60 min. Fluorescence signals at 620 nm (Cryptate) and 665 nm (XL665) were read with a microtiter plate reader. ADP Glo kinase assay: 2×ATP and substrate solution as well as 2× kinase and metal solution were prepared with assay buffer. 20 nL of compound was transferred to 384-well assay plate by Echo 655. 2 μL of 2× kinase/metal ion solution was added followed by incubation at 25° C. for 10 min in the 384-well assay plate. 2 μL of 2× substrate and ATP solution was added to the wells followed by incubation at 25° C. for 60 min. 4 μL of ADP Glo reagent was added to the wells followed by incubation at 25° C. for 40 min. 8 μL of kinase test reagent was added to the wells followed by incubation at 25° C. for 40 min. The luminescence signals were recorded on a microtiter plate reader. Data analysis: the reaction control (0.5% DMSO) reading was set to 0% inhibition, and the background (10 μM positive control) reading was set to 100% inhibition, then the percent inhibition for each test solution was calculated and the results are shown in Table 2 and FIG. 3.

[2] = biological target: CDK2/CycE1 (Homo sapiens (Human), UniProt P24941)
Protocol: as §1

[3] = biological target: CHK2 (Homo sapiens (Human), UniProt O96017)
Protocol: as §1

[4] = biological target: CK1γ3 (Homo sapiens (Human), UniProt Q9Y6M4)
Protocol: as §1

[5] = biological target: DAPK1 (Homo sapiens (Human), UniProt P53355)
Protocol: as §1

[6] = biological target: EGFR (Homo sapiens (Human), UniProt P00533)
Protocol: as §1

[7] = biological target: GSK3β (Homo sapiens (Human), UniProt P49841)
Protocol: as §1

[8] = biological target: HGK (Homo sapiens (Human), UniProt O95819)
Protocol: as §1

[9] = biological target: IGF1R (Homo sapiens (Human), UniProt P08069)
Protocol: as §1

[10] = biological target: JAK3 (Homo sapiens (Human), UniProt P52333)
Protocol: as §1

[11] = biological target: JNK2 (Homo sapiens (Human), UniProt P45984)
Protocol: as §1

[12] = biological target: KDR (Homo sapiens (Human), UniProt P35968)
Protocol: as §1

[13] = biological target: LCK (Homo sapiens (Human), UniProt P06239)
Protocol: as §1

[14] = biological target: MAP2K1 (Homo sapiens (Human), UniProt Q02750)
Protocol: as §1

[15] = biological target: MET (Homo sapiens (Human), UniProt P08581)
Protocol: as §1

[16] = biological target: PAK2 (Homo sapiens (Human), UniProt Q13177)
Protocol: as §1

[17] = biological target: PKACα (Homo sapiens (Human), UniProt P17612)
Protocol: as §1

[18] = biological target: PKCα (Homo sapiens (Human), UniProt P17252)
Protocol: as §1

[19] = biological target: PKD2 (Homo sapiens (Human), UniProt Q9BZL6)
Protocol: as §1

[20] = biological target: PLK2 (Homo sapiens (Human), UniProt Q9NYY3)
Protocol: as §1

[21] = biological target: RSK1 (Homo sapiens (Human), UniProt Q15418)
Protocol: as §1

[22] = biological target: SRC (Homo sapiens (Human), UniProt P12931)
Protocol: as §1

[23] = 1 uM Compound C1, read-out: % Inhibition (First measurement)
[24] = 1 uM Compound C1, read-out: % Inhibition (Second measurement)
[25] = 1 uM Compound C1, read-out: Average inhibition (%)

Sequence of PKD2 (Q9BZL6 whole entry): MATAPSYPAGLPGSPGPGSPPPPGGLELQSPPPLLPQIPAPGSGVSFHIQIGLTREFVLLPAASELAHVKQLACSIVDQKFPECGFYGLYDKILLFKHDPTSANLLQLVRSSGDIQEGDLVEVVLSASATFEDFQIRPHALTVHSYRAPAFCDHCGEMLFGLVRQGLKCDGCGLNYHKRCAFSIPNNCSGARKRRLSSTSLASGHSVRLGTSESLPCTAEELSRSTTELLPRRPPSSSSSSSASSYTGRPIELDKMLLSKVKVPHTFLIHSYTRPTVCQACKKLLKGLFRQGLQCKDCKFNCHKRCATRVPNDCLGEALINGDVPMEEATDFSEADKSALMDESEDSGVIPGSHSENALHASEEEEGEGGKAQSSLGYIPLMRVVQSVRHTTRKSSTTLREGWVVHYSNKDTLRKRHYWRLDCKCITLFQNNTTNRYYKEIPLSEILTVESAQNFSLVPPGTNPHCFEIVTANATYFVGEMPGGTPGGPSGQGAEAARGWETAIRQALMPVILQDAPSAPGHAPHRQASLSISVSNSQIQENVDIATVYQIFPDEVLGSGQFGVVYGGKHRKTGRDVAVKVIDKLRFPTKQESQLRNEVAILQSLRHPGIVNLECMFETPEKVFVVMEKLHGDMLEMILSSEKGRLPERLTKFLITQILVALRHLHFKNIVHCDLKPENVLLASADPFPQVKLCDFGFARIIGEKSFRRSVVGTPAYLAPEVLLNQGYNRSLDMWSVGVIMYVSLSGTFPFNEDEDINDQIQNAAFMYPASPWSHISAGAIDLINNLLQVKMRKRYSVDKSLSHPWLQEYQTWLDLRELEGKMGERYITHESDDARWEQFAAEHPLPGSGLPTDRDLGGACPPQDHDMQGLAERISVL
Sequence of SRC (P12931 whole entry, looked up, species assumed): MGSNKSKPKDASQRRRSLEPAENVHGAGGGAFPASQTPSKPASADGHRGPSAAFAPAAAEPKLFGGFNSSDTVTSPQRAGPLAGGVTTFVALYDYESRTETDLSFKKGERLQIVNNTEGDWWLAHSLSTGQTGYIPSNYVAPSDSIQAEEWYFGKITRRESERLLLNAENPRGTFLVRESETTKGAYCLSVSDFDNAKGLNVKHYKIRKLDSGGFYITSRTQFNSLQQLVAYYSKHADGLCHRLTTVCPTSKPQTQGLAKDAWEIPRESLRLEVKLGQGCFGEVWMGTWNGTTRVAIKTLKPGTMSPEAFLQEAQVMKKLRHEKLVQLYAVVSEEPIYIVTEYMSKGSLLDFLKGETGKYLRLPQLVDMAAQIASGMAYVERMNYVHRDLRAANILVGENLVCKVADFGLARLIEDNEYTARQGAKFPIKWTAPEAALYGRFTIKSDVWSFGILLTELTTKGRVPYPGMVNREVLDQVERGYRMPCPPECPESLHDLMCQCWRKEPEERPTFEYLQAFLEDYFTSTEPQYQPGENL
Sequence of PAK2 (Q13177 whole entry, species assumed): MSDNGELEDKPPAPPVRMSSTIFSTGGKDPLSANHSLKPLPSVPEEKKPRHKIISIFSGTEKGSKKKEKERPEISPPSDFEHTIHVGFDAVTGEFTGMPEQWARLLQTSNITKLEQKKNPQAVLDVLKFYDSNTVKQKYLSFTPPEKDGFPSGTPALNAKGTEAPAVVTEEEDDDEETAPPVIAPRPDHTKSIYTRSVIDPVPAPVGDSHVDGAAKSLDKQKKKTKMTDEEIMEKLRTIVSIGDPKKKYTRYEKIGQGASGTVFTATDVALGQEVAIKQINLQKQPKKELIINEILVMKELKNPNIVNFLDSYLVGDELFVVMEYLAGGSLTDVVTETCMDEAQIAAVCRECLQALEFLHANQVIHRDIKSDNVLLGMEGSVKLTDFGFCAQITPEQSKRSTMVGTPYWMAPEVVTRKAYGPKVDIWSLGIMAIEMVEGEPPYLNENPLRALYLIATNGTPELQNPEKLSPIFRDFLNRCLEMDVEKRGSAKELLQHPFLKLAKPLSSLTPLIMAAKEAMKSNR
Sequence of MET (P08581 25-1390): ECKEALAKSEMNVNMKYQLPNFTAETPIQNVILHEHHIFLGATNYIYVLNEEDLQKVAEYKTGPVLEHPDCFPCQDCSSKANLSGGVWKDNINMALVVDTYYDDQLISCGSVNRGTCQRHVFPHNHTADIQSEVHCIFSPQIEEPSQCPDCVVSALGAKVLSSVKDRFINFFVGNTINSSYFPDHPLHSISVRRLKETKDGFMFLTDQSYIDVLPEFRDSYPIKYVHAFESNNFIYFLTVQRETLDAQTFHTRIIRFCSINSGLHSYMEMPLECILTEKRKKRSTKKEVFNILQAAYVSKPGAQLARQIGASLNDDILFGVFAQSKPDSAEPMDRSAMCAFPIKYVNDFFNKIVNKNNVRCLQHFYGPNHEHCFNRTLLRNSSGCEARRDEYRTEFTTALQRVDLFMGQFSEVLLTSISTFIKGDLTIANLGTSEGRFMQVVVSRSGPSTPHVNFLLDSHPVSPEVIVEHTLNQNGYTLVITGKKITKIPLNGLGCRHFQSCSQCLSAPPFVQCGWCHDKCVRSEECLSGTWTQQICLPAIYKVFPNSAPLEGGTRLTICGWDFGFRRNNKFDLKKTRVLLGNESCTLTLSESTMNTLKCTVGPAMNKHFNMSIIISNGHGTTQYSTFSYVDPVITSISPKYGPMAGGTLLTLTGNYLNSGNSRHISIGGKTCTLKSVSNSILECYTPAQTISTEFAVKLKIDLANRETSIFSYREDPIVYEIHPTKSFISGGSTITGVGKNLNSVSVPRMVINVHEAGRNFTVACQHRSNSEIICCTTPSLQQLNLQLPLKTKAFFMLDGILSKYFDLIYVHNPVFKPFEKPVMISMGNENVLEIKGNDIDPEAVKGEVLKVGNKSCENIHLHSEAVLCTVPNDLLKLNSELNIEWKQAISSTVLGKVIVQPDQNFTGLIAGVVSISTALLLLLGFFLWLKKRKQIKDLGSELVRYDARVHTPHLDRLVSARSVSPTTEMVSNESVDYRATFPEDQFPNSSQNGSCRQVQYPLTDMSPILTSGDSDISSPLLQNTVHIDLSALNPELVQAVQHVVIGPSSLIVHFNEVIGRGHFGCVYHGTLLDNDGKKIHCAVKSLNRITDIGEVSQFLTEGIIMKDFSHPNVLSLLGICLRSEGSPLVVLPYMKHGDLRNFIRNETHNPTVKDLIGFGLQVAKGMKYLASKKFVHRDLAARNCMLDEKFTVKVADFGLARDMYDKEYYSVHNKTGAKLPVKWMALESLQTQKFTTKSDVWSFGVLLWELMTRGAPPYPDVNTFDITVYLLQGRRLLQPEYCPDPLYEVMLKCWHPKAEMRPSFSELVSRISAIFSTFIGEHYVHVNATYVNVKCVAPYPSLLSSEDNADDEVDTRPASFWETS
Sequence of KDR (P35968 20-1356, species assumed): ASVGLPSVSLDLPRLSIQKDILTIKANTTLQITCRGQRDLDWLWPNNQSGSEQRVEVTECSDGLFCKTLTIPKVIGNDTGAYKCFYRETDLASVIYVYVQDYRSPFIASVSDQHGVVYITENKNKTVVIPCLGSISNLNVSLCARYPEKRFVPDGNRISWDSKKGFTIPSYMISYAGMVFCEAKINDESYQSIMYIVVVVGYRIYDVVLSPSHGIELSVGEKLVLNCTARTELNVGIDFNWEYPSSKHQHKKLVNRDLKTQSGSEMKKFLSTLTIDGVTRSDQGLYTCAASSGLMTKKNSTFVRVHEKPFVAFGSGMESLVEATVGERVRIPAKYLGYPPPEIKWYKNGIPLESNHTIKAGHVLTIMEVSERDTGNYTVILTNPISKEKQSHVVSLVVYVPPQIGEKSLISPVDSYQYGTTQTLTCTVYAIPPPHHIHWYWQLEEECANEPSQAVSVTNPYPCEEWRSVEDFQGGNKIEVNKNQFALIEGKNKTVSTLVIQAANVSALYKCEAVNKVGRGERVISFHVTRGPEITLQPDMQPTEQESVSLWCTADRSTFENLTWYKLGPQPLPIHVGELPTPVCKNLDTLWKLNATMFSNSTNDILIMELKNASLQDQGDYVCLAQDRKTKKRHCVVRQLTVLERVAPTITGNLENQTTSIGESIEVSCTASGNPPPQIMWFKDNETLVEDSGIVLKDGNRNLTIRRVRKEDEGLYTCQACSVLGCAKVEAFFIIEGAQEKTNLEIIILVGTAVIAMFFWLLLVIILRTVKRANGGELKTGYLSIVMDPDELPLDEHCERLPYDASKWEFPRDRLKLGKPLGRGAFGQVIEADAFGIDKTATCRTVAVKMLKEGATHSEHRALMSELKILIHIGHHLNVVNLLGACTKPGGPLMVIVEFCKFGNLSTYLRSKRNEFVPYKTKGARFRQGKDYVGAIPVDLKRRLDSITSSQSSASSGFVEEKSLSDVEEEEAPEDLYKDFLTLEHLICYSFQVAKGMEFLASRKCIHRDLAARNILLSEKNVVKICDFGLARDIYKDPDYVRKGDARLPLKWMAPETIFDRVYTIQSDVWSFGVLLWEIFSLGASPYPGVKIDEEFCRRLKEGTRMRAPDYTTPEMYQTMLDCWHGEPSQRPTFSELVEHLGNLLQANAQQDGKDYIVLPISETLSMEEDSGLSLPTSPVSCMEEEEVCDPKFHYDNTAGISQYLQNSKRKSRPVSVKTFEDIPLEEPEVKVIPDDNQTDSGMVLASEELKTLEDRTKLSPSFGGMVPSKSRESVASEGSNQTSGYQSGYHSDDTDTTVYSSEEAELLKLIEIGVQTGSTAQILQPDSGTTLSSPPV
Sequence of GSK3β (P49841 whole entry, species assumed): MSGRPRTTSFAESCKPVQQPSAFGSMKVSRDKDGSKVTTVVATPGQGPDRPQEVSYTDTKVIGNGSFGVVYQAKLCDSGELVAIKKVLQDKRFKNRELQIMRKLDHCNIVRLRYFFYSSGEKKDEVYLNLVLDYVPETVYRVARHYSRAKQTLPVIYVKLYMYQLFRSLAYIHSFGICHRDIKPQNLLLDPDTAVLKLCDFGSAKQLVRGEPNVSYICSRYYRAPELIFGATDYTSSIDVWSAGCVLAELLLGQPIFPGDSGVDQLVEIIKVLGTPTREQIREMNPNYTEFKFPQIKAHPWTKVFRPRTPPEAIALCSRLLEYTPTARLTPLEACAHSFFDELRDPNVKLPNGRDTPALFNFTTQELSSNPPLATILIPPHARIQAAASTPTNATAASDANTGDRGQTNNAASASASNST

## Cc1ccc(C(=O)Nc2ccccn2)cc1C#Cc1cnc2cc(C3=CCCCC3)cnn12 [Compound C1, 3-{2-[7-(cyclohex-1-en-1-yl)imidazo[1,2-b]pyridazin-3-yl]ethynyl}-4-methyl-N-(pyridin-2-yl)benzamide]
[1]; [23]
  inhibition at 1 µM: 19.7%
[1]; [24]
  inhibition at 1 µM: 13.3%
[1]; [25]
  inhibition at 1 µM: 16.5%
[2]; [23]
  inhibition at 1 µM: 0.53%
[2]; [24]
  inhibition at 1 µM: 12.6%
[2]; [25]
  inhibition at 1 µM: 6.56%
[3]; [23]
  inhibition at 1 µM: 0.35%
[3]; [24]
  inhibition at 1 µM: 7.34%
[3]; [25]
  inhibition at 1 µM: 3.85%
[4]; [23]
  inhibition at 1 µM: -7.05%
[4]; [24]
  inhibition at 1 µM: 1.91%
[4]; [25]
  inhibition at 1 µM: -2.57%
[5]; [23]
  inhibition at 1 µM: -14.5%
[5]; [24]
  inhibition at 1 µM: -5.25%
[5]; [25]
  inhibition at 1 µM: -9.87%
[6]; [23]
  inhibition at 1 µM: -6.86%
[6]; [24]
  inhibition at 1 µM: 1.78%
[6]; [25]
  inhibition at 1 µM: -2.54%
[7]; [23]
  inhibition at 1 µM: 0.83%
[7]; [24]
  inhibition at 1 µM: 7.83%
[7]; [25]
  inhibition at 1 µM: 4.33%
[8]; [23]
  inhibition at 1 µM: 18.5%
[8]; [24]
  inhibition at 1 µM: 17%
[8]; [25]
  inhibition at 1 µM: 17.7%
[9]; [23]
  inhibition at 1 µM: -0.05%
[9]; [24]
  inhibition at 1 µM: -2.29%
[9]; [25]
  inhibition at 1 µM: -1.17%
[10]; [23]
  inhibition at 1 µM: -1.28%
[10]; [24]
  inhibition at 1 µM: 2.46%
[10]; [25]
  inhibition at 1 µM: 0.59%
[11]; [23]
  inhibition at 1 µM: 9.39%
[11]; [24]
  inhibition at 1 µM: 9.07%
[11]; [25]
  inhibition at 1 µM: 9.23%
[12]; [23]
  inhibition at 1 µM: 2.42%
[12]; [24]
  inhibition at 1 µM: 1.61%
[12]; [25]
  inhibition at 1 µM: 2.01%
[13]; [23]
  inhibition at 1 µM: 7.39%
[13]; [24]
  inhibition at 1 µM: -6.87%
[13]; [25]
  inhibition at 1 µM: 0.26%
[14]; [23]
  inhibition at 1 µM: -5.72%
[14]; [24]
  inhibition at 1 µM: -3.53%
[14]; [25]
  inhibition at 1 µM: -4.62%
[15]; [23]
  inhibition at 1 µM: -11.9%
[15]; [24]
  inhibition at 1 µM: -15.8%
[15]; [25]
  inhibition at 1 µM: -13.9%
[16]; [23]
  inhibition at 1 µM: 2.23%
[16]; [24]
  inhibition at 1 µM: 12.1%
[16]; [25]
  inhibition at 1 µM: 7.17%
[17]; [23]
  inhibition at 1 µM: -4.44%
[17]; [24]
  inhibition at 1 µM: -1.87%
[17]; [25]
  inhibition at 1 µM: -3.15%
[18]; [23]
  inhibition at 1 µM: -1.67%
[18]; [24]
  inhibition at 1 µM: -17.2%
[18]; [25]
  inhibition at 1 µM: -9.44%
[19]; [23]
  inhibition at 1 µM: -7.86%
[19]; [24]
  inhibition at 1 µM: -6.58%
[19]; [25]
  inhibition at 1 µM: -7.22%
[20]; [23]
  inhibition at 1 µM: 10.6%
[20]; [24]
  inhibition at 1 µM: 2.02%
[20]; [25]
  inhibition at 1 µM: 6.33%
[21]; [23]
  inhibition at 1 µM: 0.73%
[21]; [24]
  inhibition at 1 µM: -7.9%
[21]; [25]
  inhibition at 1 µM: -3.59%
[22]; [23]
  inhibition at 1 µM: -0.76%
[22]; [24]
  inhibition at 1 µM: -1.13%
[22]; [25]
  inhibition at 1 µM: -0.94%
